# Measured values reported in patent US8859628B2, “Method for preventing, treating and diagnosing disorders of protein aggregation” (priority 2003, dated 2014).
# Experiments:
# [1] = biological target: T1, Aβ42 (Homo sapiens, UniProt P05067); settings: cited from earlier work
# T1 construct: The importance of residues 1-42 (Aβ42) in Alzheimer's disease was highlighted
# [2] = tested on: TgCRND8 mice; assay: Cerebral Aβ content (Aβ40 and Aβ42 kits on hemi-brain homogenates); format: in vivo, mouse; design: Total Aβ: unit not given here
# Experimental: (§1) Plasma and Cerebral Aβ Content—Hemi-brain samples were homogenized in a buffered sucrose solution, followed by either 0.4% diethylamine/100 mM NaCl for soluble Aβ levels or cold formic acid for the isolation of total Aβ. After neutralization the samples were diluted and analyzed for Aβ40 and Aβ42 using commercially available kits (BIOSOURCE International). Each hemisphere was analyzed in triplicate with the mean±SEM reported. Western blot analyses were performed on all fractions using urea gels for Aβ species analyses. Aβ was detected using 6E10 (BIOSOURCE International) and Enhanced Chemiluminenscence (Amersham).
# as §1, with “reported.” for “reported. Western blot analyses were performed on all fractions using urea gels for Aβ species analyses. Aβ was detected using 6E10 (BIOSOURCE International) and Enhanced Chemiluminenscence (Amersham).”
# [3] = tested on: TgCRND8 mice; assay: Plasma Aβ levels; format: in vivo, mouse
# Experimental: as §1
# as §1, with “reported.” for “reported. Western blot analyses were performed on all fractions using urea gels for Aβ species analyses. Aβ was detected using 6E10 (BIOSOURCE International) and Enhanced Chemiluminenscence (Amersham).”
# [4] = tested on: TgCRND8 mice; assay: Survival census (Kaplan-Meier); format: in vivo, mouse; settings: vs untreated TgCRND8
# Experimental: Survival Census—The probability of survival was assessed by the Kaplan-Meier technique, computing the probability of survival at every occurrence of death, thus making it suitable for small sample sizes. For the analyses of survival, 35 mice were used for each treatment group. The comparison between treatments was reported using the Tarone-Ware test.
# [5] = tested on: TgCRND8 mice; assay: Morris Water Maze, spatial reference memory version, five-day trial paradigm (prevention study); format: in vivo, mouse; settings: 6 months of age
# Experimental: Age and sex-matched cohorts of TgCRND8 mice and non-transgenic littermates (n=35 in each cohort) were either untreated, or were given a compound of the present invention as indicated below at 30 mg/day/mouse beginning at age of about 6 weeks. The mice were followed for outcome measures cognitive function, brain Aβ levels, brain pathology, and survival at 4 months and 6 months of age.
# Two cohorts entered the study at 6 weeks of age and outcomes were analyzed at 4- and 6-months of age. The body weight, coat characteristics and in cage behavior was monitored. All experiments were performed according to the Canadian Council on Animal Care guidelines.
# Behavioral tests—After non-spatial pre-training, mice underwent place discrimination training for 5 days with 4 trials per day. Behavioral data was analyzed using a mixed model of factorial analysis of variance (ANOVA) with drug or genotype and training sessions as repeated measure factors.
# The cognitive function of TgCRND8 mice was assessed using the spatial reference memory version of the Morris Water Maze using a five-day trial paradigm (FIGS. 1C-1H). […] The improved performance was also not due to nutritional or caloric effects because body weight, activity, and coat condition were not different between treated and untreated cohorts. […] Gender effects were not significant between any treatment group (p=0.85).
# [6] = tested on: TgCRND8 mice; assay: Morris Water Maze, spatial reference memory version, three-day trial paradigm (treatment/reversal study); format: in vivo, mouse; settings: 1 month treatment from 5 months of age, three-day paradigm
# Experimental: A cohort entered the study at 5 months of age and outcomes were analyzed at 6-months of age. The body weight, coat characteristics and in cage behavior was monitored. All experiments were performed according to the Canadian Council on Animal Care guidelines.
# Behavioral Test—Reversal Study—Mice entered the Morris water maze test with a hidden platform on day one without pretraining. Mice were tested for 3 days with six trials per day. On the fourth day, the platform was removed from the pool and each mouse received one 30-s swim probe trial. On the last day the animals underwent a cue test in order to evaluate swimming ability, eye sight and general cognition. The cue test is composed at the platform being placed in a different quadrant than that used for testing and is tagged with a flag. Animals are allowed 60 s to find the platform. […] Behavioural data was analysed using a mixed model of factorial analysis of variance (ANOVA) with drug or genotype and training sessions as repeated measure factors.
# The cognitive function of TgCRND8 mice was assessed using the spatial reference memory version of the Morris Water Maze using a three day trial paradigm (FIGS. 4-8).
# Behavioural data was analysed using a mixed model of factorial analysis of variance (ANOVA) with drug and genotype as between subject variables and training sessions as within subject variable.
# In these experiments, the dosage and oral administration of compounds, and the behavioral and neurochemical assays were the same as those employed in the above treatment experiments.
# [7] = tested on: TgCRND8 mice; assay: Cerebral amyloid plaque burden (anti-Aβ immunostaining, image analysis); format: in vivo, mouse
# Experimental: (§2) Cerebral amyloid burden—Brains were removed and one hemisphere was fixed in 4% paraformaldehyde and embedded in paraffin wax in the mid saggital plane. To generate sets of systematic uniform random sections, 5 μm serial sections were collected across the entire hemisphere. Sets of sections at […] intervals were used for analyses (10-14 sections/set). Plaque were identified after antigen retrieval with formic acid, and incubated with primary anti-Aβ antibody (Dako M-0872), followed by secondary antibody (Dako StreptABCcomplex/horseradish kit). End products were visualized with DAB counter-stained with hematoxylin. Amyloid plaque burden was assessed using Leco IA-3001 image analysis software interfaced with Leica microscope and Hitachi KP-M1U CCD video camera. Vascular burden was analyzed similarly and a dissector was used to measure the diameter of affected vessels.
# as §2, with “camera.” for “camera. Vascular burden was analyzed similarly and a dissector was used to measure the diameter of affected vessels.”
# [8] = tested on: AD patients; settings: human, in vivo; cited from earlier work
# [9] = 1 month treatment from 5 months of age
# [10] = 1 month treatment, 30 mg/mouse/day from 5 months, analyzed at 6 months of age
# [11] = 4 month prevention, 30 mg/mouse/day from 6 weeks of age
# [12] = 6 month prevention, 30 mg/mouse/day from 6 weeks of age
# T1 sequence (P05067 672-713 limits assumed): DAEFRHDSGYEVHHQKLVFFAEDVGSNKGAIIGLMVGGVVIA
smiles,measurement,setting,value
"O[C@H]1[C@H](O)[C@@H](O)[C@H](O)[C@@H](O)[C@H]1O [Myo-Inositol, myo-inositol, reference compound]",stabilization of Aβ42 micelle,[1],stabilizes a small micelle of Aβ42
same,Aβ load vs untreated,[2]; [9],did not affect the plaque burden or Aβ load
same,Total Aβ,[2]; [10],20490 ± 526
same,Total Aβ,[2]; [11],4969 ± 434
same,Total Aβ,[2]; [12],17489 ± 354
same,Plasma Aβ Levels,[3]; 1 month treatment,2110 ± 174 pg/mL
same,effect on plasma Aβ levels in comparison to untreated (words),[3]; [9],"Neither myo-inositol, epi-inositol nor scyllo-inositol treatment had any effect on plasma Aβ levels"
same,Plasma Aβ Levels,[3]; 4 month prevention,942 ± 30 pg/mL
same,Plasma Aβ Levels,[3]; 6 month prevention,969 ± 67 pg/mL
same,effect on survival of TgCRND8 mice,[4],did not affect overall survival significantly
same,"cognitive function, treated vs untreated TgCRND8 mice (words)",[5],did not alter cognitive function
same,"cognitive function, treated TgCRND8 mice vs non-Tg littermates (words)",[6],significantly different from treated non-Tg littermates
same,plaque burden vs untreated,[7]; [9],did not affect the plaque burden or Aβ load
same,Plaque Area,[7]; [10],469968 ± 35664 μm^2
same,Plaque Count,[7]; [10],1324 ± 69
same,Total Plaque Area/Total Brain Area,[7]; [10],0.153 ± 0.088%
same,Plaque Area,[7]; [11],91902 ± 7453 μm^2
same,Plaque Count,[7]; [11],649 ± 50
same,Total Plaque Area/Total Brain Area,[7]; [11],0.023 ± 0.004%
same,Plaque Area,[7]; [12],400013 ± 19638 μm^2
same,Plaque Count,[7]; [12],927 ± 78
same,Total Plaque Area/Total Brain Area,[7]; [12],0.100 ± 0.005%
O[C@H]1[C@H](O)[C@@H](O)[C@H](O)[C@@H](O)[C@H]1O [inositol],CAMCOG subscales orientation and language,[8],did show significant improvement
